# In patent US20260250251A1, “HETEROCYCLIC COMPOUNDS AS PI3Ka INHIBITORS” (Pikavation Therapeutics, Inc., priority 2022, published 2026):
# pIC50: −log10 of the molar value.
# Assays:
# [1] = test system: SKBR3 (PIK3CA WT) cells, pSer473 AKT; experiment: pS473 AKT assay in SKBR3 cells; assay type: cell-based; conditions: Homo sapiens, SK-BR-3, treated 2 h, read-out: SKBR3_IC50
# Method: (§1) SKBR3 (PIK3CA WT), MCF7 (PIK3CA E545K), and T47D (PIK3CA H1047R) cells were cultured using 10-cm petri dishes with recommended medium. One day before the assay, cells were seeded in 96-well plates. After overnight incubation, cells were treated with different concentrations of PI3Kα inhibitors for 2 h. Cells were then fixed using 4% paraformaldehyde at room temperature for 20 min. Cells were aspirated with 4% paraformaldehyde, and washed using 1× regular phosphate buffered saline 3 times, 5 min each. Any residual phosphate buffered saline was aspirated and cells were blocked using 10% goat serum containing 1% bovine serum albumin and 0.3% Triton X-100 at room temperature for 1 h. Without any additional washing, primary antibodies (rabbit anti-pSer473 AKT) were diluted using blocking buffer and added at a final volume of 50 microliter per well. Assay plates with primary antibodies were maintained overnight at 4° C. Cells were washed using 1× regular phosphate buffered saline 3 times, 5 min each. After the final wash, cells were incubated with horseradish peroxidase-conjugated secondary antibodies (goat Anti-rabbit IgG) and diluted using the same blocking buffer at room temperature for 1 h. Cells were then washed thoroughly using 1× regular phosphate buffered saline 3 times, 5 min each, and any residual phosphate buffered saline was aspirated. Super-Signal ELISA Pico Chemiluminescent Substrate was then added at a final volume of 100 microliter per well. Plates were read on a i3x Multi-Mode Microplate Reader and IC50 values calculated using GraphPad Prism software.
# (§2) Results of the assay described above are presented in Table A. “++++” indicates an IC50 less than 1000 nM; “+++” indicates an IC50 greater than or equal to 1000 nM but less than 5000 nM; “++” indicates an IC50 greater than or equal to 5000 nM but less than 10000 nM; and “+” indicates an IC50 greater than or equal to 10000 nM.
# [2] = test system: T47D (PIK3CA H1047R) cells, pSer473 AKT; experiment: pS473 AKT assay in T47D cells; assay type: cell-based; conditions: Homo sapiens, treated 2 h, read-out: T47D_IC50
# Method: as §1, §2
pIC50 [1],pIC50 [2],Structure (SMILES)
> 6.00,> 6.00,"Nc1n[nH]c2ccc(NC(=O)c3cc(F)cc(C(F)(F)F)c3)c(Oc3cc(F)ccc3Cl)c12 [Example 1, N-(3-Amino-4-(2-chloro-5-fluorophenoxy)-1H-indazol-5-yl)-3-fluoro-5-(trifluoromethyl)benzamide]"
5.30 to 6.00,> 6.00,"CNc1n[nH]c2ccc(NC(=O)c3cc(F)cc(C(F)(F)F)c3)c(Oc3cc(F)ccc3Cl)c12 [Example 2, N-(4-(2-Chloro-5-fluorophenoxy)-3-(methylamino)-1H-indazol-5-yl)-3-fluoro-5-(trifluoromethyl)benzamide]"
≤ 5.00,> 6.00,"Nc1n[nH]c2ccc(NC(=O)c3cc(F)cc(C(F)(F)F)c3)c(Oc3cncc(Cl)c3)c12 [Example 3, N-(3-Amino-4-((5-chloropyridin-3-yl)oxy)-1H-indazol-5-yl)-3-fluoro-5-(trifluoromethyl)benzamide]"
5.00 to 5.30,> 6.00,"Nc1n[nH]c2ccc(NC(=O)c3cc(F)cc(C(F)(F)F)c3)c(Nc3cc(F)ccc3Cl)c12 [Example 4, N-(3-Amino-4-((2-chloro-5-fluorophenyl)amino)-1H-indazol-5-yl)-3-fluoro-5-(trifluoromethyl)benzamide]"
5.00 to 5.30,5.30 to 6.00,"Nc1n[nH]c2ccc(NC(=O)c3cc(F)cc(C(F)(F)F)c3)c(Cc3cc(F)ccc3Cl)c12 [Example 5, N-(3-Amino-4-(2-chloro-5-fluorobenzyl)-1H-indazol-5-yl)-3-fluoro-5-(trifluoromethyl)benzamide]"
≤ 5.00,5.30 to 6.00,"Nc1n[nH]c2ccc(NC(=O)c3cc(F)cc(C(F)(F)F)c3)c(COc3cc(F)ccc3Cl)c12 [Example 6, N-(3-amino-4-((2-chloro-5-fluorophenoxy)methyl)-1H-indazol-5-yl)-3-fluoro-5-(trifluoromethyl)benzamide]"
> 6.00,> 6.00,"Cn1nc(N)c2c(Oc3cc(F)ccc3Cl)c(NC(=O)c3cc(F)cc(C(F)(F)F)c3)ccc21 [Example 7, N-(3-amino-4-(2-chloro-5-fluorophenoxy)-1-methyl-1H-indazol-5-yl)-3-fluoro-5-(trifluoromethyl)benzamide]"
> 6.00,> 6.00,"CCn1nc(N)c2c(Oc3cc(F)ccc3Cl)c(NC(=O)c3cc(F)cc(C(F)(F)F)c3)ccc21 [Example 8, N-(3-Amino-4-(2-chloro-5-fluorophenoxy)-1-ethyl-1H-indazol-5-yl)-3-fluoro-5-(trifluoromethyl)benzamide]"
5.30 to 6.00,> 6.00,"CNC(=O)Cn1nc(N)c2c(Oc3cc(F)ccc3Cl)c(NC(=O)c3cc(F)cc(C(F)(F)F)c3)ccc21 [Example 9, N-(3-Amino-4-(2-chloro-5-fluorophenoxy)-1-(2-(methylamino)-2-oxoethyl)-1H-indazol-5-yl)-3-fluoro-5-(trifluoromethyl)benzamide]"
5.30 to 6.00,> 6.00,"Nc1nn(CC(=O)N2CCOCC2)c2ccc(NC(=O)c3cc(F)cc(C(F)(F)F)c3)c(Oc3cc(F)ccc3Cl)c12 [Example 10, N-(3-Amino-4-(2-chloro-5-fluorophenoxy)-1-(2-morpholino-2-oxoethyl)-1H-indazol-5-yl)-3-fluoro-5-(trifluoromethyl)benzamide]"
> 6.00,> 6.00,"Nc1n[nH]c2c(Br)cc(NC(=O)c3cc(F)cc(C(F)(F)F)c3)c(Oc3cc(F)ccc3Cl)c12 [Example 11, N-(3-Amino-7-bromo-4-(2-chloro-5-fluorophenoxy)-1H-indazol-5-yl)-3-fluoro-5-(trifluoromethyl)benzamide]"
> 6.00,> 6.00,"Nc1n[nH]c2c(Cl)cc(NC(=O)c3cc(F)cc(C(F)(F)F)c3)c(Oc3cc(F)ccc3Cl)c12 [Example 12, N-(3-Amino-7-chloro-4-(2-chloro-5-fluorophenoxy)-1H-indazol-5-yl)-3-fluoro-5-(trifluoromethyl)benzamide]"
> 6.00,> 6.00,"Cc1cc(NC(=O)c2cc(F)cc(C(F)(F)F)c2)c(Oc2cc(F)ccc2Cl)c2c(N)n[nH]c12 [Example 13, N-(3-Amino-4-(2-chloro-5-fluorophenoxy)-7-methyl-1H-indazol-5-yl)-3-fluoro-5-(trifluoromethyl)benzamide]"
5.30 to 6.00,> 6.00,"Cn1cc(-c2cc(NC(=O)c3cc(F)cc(C(F)(F)F)c3)c(Oc3cc(F)ccc3Cl)c3c(N)n[nH]c23)cn1 [Example 14, N-(3-Amino-4-(2-chloro-5-fluorophenoxy)-7-(1-methyl-1H-pyrazol-4-yl)-1H-indazol-5-yl)-3-fluoro-5-(trifluoromethyl)benzamide]"
> 6.00,> 6.00,"Cn1nccc1-c1cc(NC(=O)c2cc(F)cc(C(F)(F)F)c2)c(Oc2cc(F)ccc2Cl)c2c(N)n[nH]c12 [Example 15, N-(3-Amino-4-(2-chloro-5-fluorophenoxy)-7-(1-methyl-1H-pyrazol-5-yl)-1H-indazol-5-yl)-3-fluoro-5-(trifluoromethyl)benzamide]"
5.30 to 6.00,> 6.00,"Nc1n[nH]c2c(-c3cccnc3)cc(NC(=O)c3cc(F)cc(C(F)(F)F)c3)c(Oc3cc(F)ccc3Cl)c12 [Example 16, N-(3-Amino-4-(2-chloro-5-fluorophenoxy)-7-(pyridin-3-yl)-1H-indazol-5-yl)-3-fluoro-5-(trifluoromethyl)benzamide]"
5.30 to 6.00,> 6.00,"Nc1n[nH]c2c(-c3ccccc3)cc(NC(=O)c3cc(F)cc(C(F)(F)F)c3)c(Oc3cc(F)ccc3Cl)c12 [Example 17, N-(3-Amino-4-(2-chloro-5-fluorophenoxy)-7-phenyl-1H-indazol-5-yl)-3-fluoro-5-(trifluoromethyl)benzamide]"
> 6.00,> 6.00,"Nc1n[nH]c2ccc(NC(=O)c3csc4ccccc34)c(Oc3cc(F)ccc3Cl)c12 [Example 18, N-(3-Amino-4-(2-chloro-5-fluorophenoxy)-1H-indazol-5-yl)benzo[b]thiophene-3-carboxamide]"
5.30 to 6.00,> 6.00,"Nc1n[nH]c2ccc(NC(=O)N3CC(O)(C(F)(F)F)c4cc(F)ccc43)c(Oc3cc(F)ccc3Cl)c12 (stereo not shown) [Example 19, N-(3-Amino-4-(2-chloro-5-fluorophenoxy)-1H-indazol-5-yl)-5-fluoro-3-hydroxy-3-(trifluoromethyl)indoline-1-carboxamide]"
5.30 to 6.00,> 6.00,"Nc1nnc2ccc(NC(=O)c3cc(F)cc(C(F)(F)F)c3)c(Oc3cc(F)ccc3Cl)n12 [Example 20, N-(3-Amino-5-(2-chloro-5-fluorophenoxy)-[1,2,4]triazolo[4,3-a]pyridin-6-yl)-3-fluoro-5-(trifluoromethyl)benzamide]"
> 6.00,> 6.00,"Nc1n[nH]c2c(CN3CCOCC3)cc(NC(=O)c3cc(F)cc(C(F)(F)F)c3)c(Oc3cc(F)ccc3Cl)c12 [Example 21, N-(3-Amino-4-(2-chloro-5-fluorophenoxy)-7-(morpholinomethyl)-1H-indazol-5-yl)-3-fluoro-5-(trifluoromethyl)benzamide]"
> 6.00,> 6.00,"Nc1nn2c3c(cc(NC(=O)c4cc(F)cc(C(F)(F)F)c4)c(Oc4cc(F)ccc4Cl)c13)CCC2 [Example 22, N-(2-amino-3-(2-chloro-5-fluorophenoxy)-7,8-dihydro-6H-pyrazolo[4,5,1-ij]quinolin-4-yl)-3-fluoro-5-(trifluoromethyl)benzamide]"
> 6.00,> 6.00,"Nc1n[nH]c2c(CO)cc(NC(=O)c3cc(F)cc(C(F)(F)F)c3)c(Oc3cc(F)ccc3Cl)c12 [Example 23, N-(3-Amino-4-(2-chloro-5-fluorophenoxy)-7-(hydroxymethyl)-1H-indazol-5-yl)-3-fluoro-5-(trifluoromethyl)benzamide]"
> 6.00,> 6.00,"Cn1nc(N)c2c(Oc3cc(F)ccc3Cl)c(NC(=O)c3cc(F)cc(C(F)(F)F)c3)cc(Cl)c21 [Example 24, N-(3-Amino-7-chloro-4-(2-chloro-5-fluorophenoxy)-1-methyl-1H-indazol-5-yl)-3-fluoro-5-(trifluoromethyl)benzamide]"
> 6.00,> 6.00,"Cn1nc(N)c2c(Oc3cc(F)ccc3Cl)c(NC(=O)c3cc(F)cc(C(F)(F)F)c3)cc(Br)c21 [Example 25, N-(3-Amino-7-bromo-4-(2-chloro-5-fluorophenoxy)-1-methyl-1H-indazol-5-yl)-3-fluoro-5-(trifluoromethyl)benzamide]"
5.30 to 6.00,> 6.00,"CC(C)n1cc(-c2cc(NC(=O)c3cc(F)cc(C(F)(F)F)c3)c(Oc3cc(F)ccc3Cl)c3c(N)nn(C)c23)cn1 [Example 26, N-(3-Amino-4-(2-chloro-5-fluorophenoxy)-7-(1-isopropyl-1H-pyrazol-4-yl)-1-methyl-1H-indazol-5-yl)-3-fluoro-5-(trifluoromethyl)benzamide]"
